For two compounds, Kd results are on record in paper PMC10347124, “Exploring the Anticancer Potential of Premna resinosa (Hochst.) Leaf Surface Extract: Discovering New Diterpenes as Heat Shock Protein 70 (Hsp70) Binding Agents” (Plants, 2023).

In experiment [1] the target is T1, Hsp70 (Heat Shock Protein 70 1A) (Homo sapiens, UniProt P0DMV8).
T1 construct: gene HSPA1A; recombinant Hsp70 immobilized on CM5 chip
The experiment in a line: SPR (Biacore […]), single-site model. The format is binding. For orientation: Surface plasmon resonance follows binding to a sensor surface in real time, without labels.

For experiment [2], the target named is T1, Hsp70 (Heat Shock Protein 70 1A). In words: SPR (Biacore […]), single-site model; positive control. The format is binding.

Structures are written as SMILES.

T1 sequence (P0DMV8 2-641): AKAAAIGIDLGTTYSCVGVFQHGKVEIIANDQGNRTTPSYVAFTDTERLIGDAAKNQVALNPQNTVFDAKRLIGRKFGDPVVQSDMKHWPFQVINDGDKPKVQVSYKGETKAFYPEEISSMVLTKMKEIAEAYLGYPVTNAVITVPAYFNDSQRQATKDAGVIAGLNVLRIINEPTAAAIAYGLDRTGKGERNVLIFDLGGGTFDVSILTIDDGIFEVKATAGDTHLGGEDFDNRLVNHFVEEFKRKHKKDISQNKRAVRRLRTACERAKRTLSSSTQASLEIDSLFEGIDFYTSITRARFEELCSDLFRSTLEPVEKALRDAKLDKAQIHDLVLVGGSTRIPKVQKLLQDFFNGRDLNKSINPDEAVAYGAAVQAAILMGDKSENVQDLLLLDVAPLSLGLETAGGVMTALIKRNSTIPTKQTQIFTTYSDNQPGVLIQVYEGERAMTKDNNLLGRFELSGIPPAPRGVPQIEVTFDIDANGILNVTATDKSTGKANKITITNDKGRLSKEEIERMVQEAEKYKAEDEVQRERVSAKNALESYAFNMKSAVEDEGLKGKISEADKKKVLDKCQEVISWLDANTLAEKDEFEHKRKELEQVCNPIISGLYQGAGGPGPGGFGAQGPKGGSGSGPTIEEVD

Regarding `CC1=CCC2C(C)(C)CCCC2(C)C1CC(O)C1=CC(=O)OC1` (single isomer, unassigned; ent-12) [compound 4, ent-12-hydroxylabda-7,13-dien-15,16-olide], binding in experiment [1] was characterised by a dissociation constant (Kd) of 1000 nM.
In the case of `C=C1C(=O)[C@]23[C@H](O)[C@H]1CC[C@H]2[C@@]12CO[C@]3(O)[C@@H](O)[C@@H]1C(C)(C)CC[C@@H]2O` [oridonin], the Kd – broadly, the equilibrium constant for the complex coming apart – in experiment [2] is 81.4 nM.
